Drawing on patent US8093240B2, “Triazole derivatives” (Merck Patent GmbH, priority 2005, dated 2012), this text covers IC50 for 13 compounds.

The subject of this assay is TGF-beta. Description: Elimination of TGF-beta-mediated growth inhibition in Mv1Lu cells (Crystal Violet staining). To be noted: 48 h; lung epithelial cell line Mv1Lu, 1 ng/ml TGF-beta, 0.5% FCS, two days. In kind it is cell-based. How it is done:
In-Vitro (Enzyme) Assay for Determination of the Efficacy of Inhibitors of the Inhibition of TGF-Beta-Mediated Effects
As an example, the ability of the inhibitors to eliminate TGF-beta-mediated growth inhibition is tested.
Cells of the lung epithelial cell line Mv1Lu are sown in a defined cell density in a 96-well microtitre plate and cultivated overnight under standard conditions. Next day, the medium is replaced by medium which comprises 0.5% of FCS and 1 ng/ml of TGF-beta, and the test sub-stances are added in defined concentrations, generally in the form of dilution series with 5-fold steps. The concentration of the solvent DMSO is constant at 0.5%. After a further two days, Crystal Violet staining of the cells is carried out. After extraction of the Crystal Violet from the fixed cells, the absorption is measured spectrophotometrically at 550 nm. It can be used as a quantitative measure of the adherent cells present and thus of the cell proliferation during the culture.
The compound `CC1CNc2cc(O)ccc2-n2c(-c3cc(Cl)ccc3F)nnc21` (racemic) [Compound A9, (R,S)-1-(5-Chloro-2-fluorophenyl)-4-methyl-5,6-dihydro-4H-2,3,6,10b-tetraazabenzo[e]azulene-8-ol] gave an IC50 of 0.91 µM.

The compound `COc1cccc(-c2nnc3n2-c2ccc(OC)cc2NCC3C)c1` (racemic) [Compound A6, (R,S)-8-Methoxy-1-(3-methoxyphenyl)-4-methyl-5,6-dihydro-4H-2,3,6,10b-tetraazabenzo[e]azulene] showed an IC50 of 3.9 µM.

The compound `Cc1cccc(-c2nnc3n2-c2ccc(Cl)cc2NCC3C)n1` (racemic) [Compound A3, (R,S)-8-Chloro-4-methyl-1-(6-methylpyridin-2-yl)-5,6-dihydro-4H-2,3,6,10b-tetraazabenzo[e]azulene] yielded an IC50 of 3.5 µM.

For `Cc1cccc(-c2nnc3n2-c2ccc(O)cc2NC(C)C3)n1` (stereo not shown) [Compound A78, 5-Methyl-1-(6-methylpyridin-2-yl)-5,6-dihydro-4H-2,3,6,10b-tetraazabenzo[e]azulen-8-ol], the IC50 was found to be 0.15 µM.

`Cc1cccc(-c2nnc3n2-c2cc(NC(=O)C(C)(C)C)ccc2NCC3C)n1` (stereo not shown) [Compound A80, 2,2-Dimethyl-N-[4-methyl-1-(6-methylpyridin-2-yl)-5,6-dihydro-4H-2,3,6,10b-tetraazabenzo[e]azulen-9-yl]propionamide] registered an IC50 of 3.3 µM.

In turn, `Cc1cccc(-c2nnc3n2-c2ccc(O)cc2NCC3C)n1` (racemic) [Compound A1, (R,S)-8-hydroxy-4-methyl-1-(6-methylpyridin-2-yl)-5,6-dihydro-4H-2,3,6,10btetraazabenzo[e]azulene] displayed an IC50 of 0.18 µM.

Take `Cc1cccc(-c2nnc3n2-c2ccc(Cl)cc2NC[C@@H]3C)n1` [Compound A4, (+)-(S)-8-Chloro-4-methyl-1-(6-methylpyridin-2-yl)-5,6-dihydro-4H-2,3,6,10b-tetraazabenzo[e]azulene]: the IC50 was 3.8 µM.

The compound `CCOc1cccc(-c2nnc3n2-c2ccc(Cl)cc2NCC3C)c1` (racemic) [Compound A10, (R,S)-8-Chloro-1-(3-ethoxyphenyl)-4-methyl-5,6-dihydro-4H-2,3,6,10b-tetraazabenzo[e]azulene] displayed an IC50 of 5.7 µM.

The compound `COc1ccc2c(c1)NCC(C)c1nnc(-c3cc(Cl)ccc3F)n1-2` (racemic) [Compound A8, (R,S)-1-(5-Chloro-2-fluorophenyl)-8-methoxy-4-methyl-5,6-dihydro-4H-2,3,6,10b-tetraazabenzo[e]azulene] had an IC50 of 6.6 µM.

In turn, `COc1ccc2c(c1)NCC(C)c1nnc(-c3cccc(C)n3)n1-2` (racemic) [Compound A5, (R,S)-8-Methoxy-4-methyl-1-(6-methylpyridin-2-yl)-5,6-dihydro-4H-2,3,6,10b-tetraazabenzo[e]azulene] had an IC50 of 2.4 µM.

`CC1CNc2cc(O)ccc2-n2c(-c3cccc(Cl)c3)nnc21` (racemic) [Compound A2, (R,S)-1-(3-Chlorophenyl)-4-methyl-5,6-dihydro-4H-2,3,6,10b-tetraazabenzo[e]azulen-8-ol] yielded an IC50 of 0.97 µM.

`Cc1cccc(-c2nnc3n2-c2ccc(O)cc2NCC3)n1` [Compound A7, 1-(6-Methylpyridin-2-yl)-5,6-dihydro-4H-2,3,6,10b-tetraazabenzo[e]azulen-8-ol] displayed a half-inhibitory concentration (IC50) of 2.2 µM.

In turn, `COc1cccc(-c2nnc3n2-c2ccc(Cl)cc2NCC3C)c1` (racemic) [Compound B1, (R,S)-8-Chloro-1-(3-methoxyphenyl)-4-methyl-5,6-dihydro-4H-2,3,6,10b-tetraazabenzo[e]azulene] had an IC50 of 7 µM.
